# Entries after “also recorded” stand apart in the source; their conditions may differ.
# How the values were obtained:
# [1] = test system: brown adipocytes (BAT); assay: Example 1: high fat diet mice given 2% D-allulose drinking water, body weight, blood glucose and brown adipocytes; type: in vivo
# Method: (§1) The influence of administration of D-allulose, one of rare sugars, on brown adipocytes (BAT: abbreviation of brown adipose tissue) was studied. The experiment was performed using 6-week mice and the mice were divided into 3 groups, each group having 5 mice. The treatment was made as follows for 8 weeks. • (1) A group of normal diet and drinking of water (Normal food) • (2) A group of high fat diet and drinking of water (HFD) • (3) A group of high fat diet and drinking of water containing 2% D-allulose (D-allulose) (HFD+2% D-allulose) 2. Evaluation item: • (1) Transition of Body Weight • Transition of Blood Glucose • (2) Size and weight of brown adipocytes under the scapula • (3) Pathological evaluation of the morphological change in brown adipocytes • (4) Evaluation of UCP-1, PPAR-α, and PGC-1α expression levels as activation of brown adipocytes 3.
# [2] = test system: UCP-1, PPAR-α, PGC-1α; assay: Example 1: expression levels of UCP-1, PPAR-α and PGC-1α as activation of brown adipocytes; type: in vivo, mice; conditions: HFD+2% D-allulose vs HFD
# Method: as §1, with “In Examples of the present invention, activation of brown adipocytes was evaluated by the expression level of UCP-1, PPAR-α, or PGC-1α. The influence” for “The influence”
# [3] = test system: type 2 diabetic patients; assay: Example 2: human clinical test of D-allulose (D-psicose) in type 2 diabetic patients; type: in vivo
# From the text: Type 2 diabetic patients unable to get sufficient effects by any of the following treatments (HbA1c: 6.5% or more) […] • 1) Only diet therapy and exercise therapy • 2) Drug therapy in addition to diet therapy and exercise therapy <Exclusion Standards> • 1) Patients having a contraindication to D-allulose (D-psicose) administration • 2) Patients who are participating in another clinical trial • 3) Pregnant women, parturients, lactating women, or women who may be pregnant • 4) Patients having 8% or more HbA1c and poor in blood glucose control • 5) Patients recognized to have severe renal dysfunction (serum creatinine level: 1.5 mg/dl or more) • 6) Patients having another severe complication <Experimenting Method> D-allulose (D-psicose) powders: provided as sticks each containing 5 g/pack (product of Rare Sweet) It was orally administered with 5 g per dose three times a day. Twelve type 2 diabetic patients (4 male cases, 8 female cases) who could be observed for 3 months were compared for general findings and blood test before administration and 12 weeks after administration (Wilcoxon signed rank test).
# [4] = test system: brown adipose tissue (BAT); type: in vivo, mice
# Method: FIG. 10 is a drawing for describing the procedure (protocol) of the experiment of Example 3. Mice are divided into two groups, with one group having five mice. Eight-week-old mice of each group are loaded with a high fat diet (HFD). From four weeks after loading with HFD, one of the groups is loaded with HFD continuously. To the other group, D-allulose (0.2 mg/body weight g/day), in addition to HFD, is administered to the stomach by a sonde. Until week 10, the body weight, food intake, water intake, and blood glucose level are monitored. Glucose was intraperitoneally administered and the blood glucose level after 0, 15, 30, 60, 90, and 120 minutes were measured.
# [5] = test system: beige adipocytes; assay: Example 3: marker expression in beige adipocytes of HFD-loaded mice after D-allulose; type: in vivo
# Method: (§2) (Purpose) The influence of D-allulose administration to mice on their brown adipose tissue is confirmed. In addition, differentiation of beige adipocytes is studied with a change in UCP-1 expression or the like as a marker. Mice are divided into two groups, each group having five mice. Eight-week-old mice of each group are loaded with a high fat diet (HFD). From four weeks after loading with HFD, one of the groups is loaded with HFD continuously. To the other group, D-allulose (0.2 mg/body weight g/day) together with HFD is administered to the stomach by a sonde. Until week 10, the body weight, food intake, water intake, and blood glucose level are monitored. The administration of D-allulose has a possibility of contributing a weight loss by inducing beige adipocytes and activating brown adipocytes. • 9) With regard to the details of the induction of beige adipocytes and the activation of brown adipocytes caused by D-allulose administration, expression of UCP-1 and Prdm16 which are genes involved in thermogenesis, Pgcl-α and Tfam which are genes reflecting the mitochondrial function of organelle involved in thermogenesis, and PPARγ which is a gene related to the differentiation of fat are investigated and the results are shown in FIG. 19.
# [6] = test system: brown adipocytes; assay: Example 3: marker expression in brown adipocytes of HFD-loaded mice after D-allulose; type: in vivo
# Method: as §2
# [7] = test system: cell line derived from a single clone from BAT of the adult supraclavicular fossa; assay: Differentiation induction into beige adipocytes in cells (BAT-protocol, WAT-protocol) with addition of D-allulose; type: cell-based
# From the text: FIG. 21 is a drawing for describing, with regard to an experiment using cells (a single-clone-derived cell strain is established from BAT of adult supraclavicular fossa portion and is used as a research model of differentiation induction into beige adipocytes), two protocols, that is, BAT-protocol and WAT-protocol, for inducing beige adipocytes. FIG. 22 is a drawing for describing, in an experiment using cells, protocols including two protocols, that is, BAT-protocol and WAT-protocol, for inducing beige adipocytes and further including addition of D-allulose. […] They are presumed to participate in the activation of brown adipocytes. • 10) FIG. 20 is a drawing for describing two protocols for inducing beige adipocytes, that is, BAT-protocol and WAT-protocol used in an experiment using cells (a cell line derived from a single clone from BAT of the adult supraclavicular fossa is established and used as a research model of the differentiation induction into beige adipocytes). FIG. 21 is a drawing for describing a protocol including two protocols for inducing beige adipocytes, that is, BAT-protocol and WAT-protocol and further including addition of D-allulose in an experiment using cells.
# [8] = 6-week mice, HFD+2% D-allulose water, 8 weeks, vs HFD group
# [9] = after administration vs before administration
# [10] = before vs 12 weeks after administration, 5 g three times a day
# [11] = HFD mice, D-allulose administered group
# [12] = classical brown adipose tissue, HFD-loaded mice
# [13] = presence or absence of D-allulose
structure (smiles),measurement,setting,value
O=C(CO)[C@H](O)[C@H](O)[C@H](O)CO [D-allulose],Transition of blood glucose,[1]; [8],a decrease in blood glucose was recognized
same,Transition of body weight,[1]; [8],a decrease in body weight was observed
same,Size and weight of brown adipocytes under the scapula,"[1]; HFD+2% D-allulose, 8 weeks, vs HFD group",an increase in brown adipocytes was recognized
same,Pathological evaluation of the morphological change in brown adipocytes,"[1]; HFD+2% D-allulose, tissue staining, vs HFD group (steatosis)",improved to have almost a normal state; also recorded: almost morphologically similar to that of the normal diet intake group
same,PGC-1α expression level,[2],induced more strongly
same,PPAR-α expression level,[2],induced more strongly
same,UCP-1 expression level,[2],induced UCP-1 further
same,TNF-α level,[3]; 2 months after administration,significant decrease
same,Body weight decrease on average,"[3]; 5 g three times a day orally, 3 months after administration, 12 patients",1 kg
same,Body weight,"[3]; 5 g three times a day orally, after 3 months",significant decrease in body weight
same,MCP-1 level,[3]; [9],significantly decreased
same,TNF-α level,[3]; [9],significantly decreased
same,GA,[3]; [10],No significant difference
same,HbA1c,[3]; [10],No significant difference
same,adiponectin,[3]; [10],No significant difference
same,leptin,[3]; [10],No significant difference
same,Increasing degree of body weight,"[4]; HFD mice, D-allulose 0.2 mg/body weight g/day by sonde, from week 2 after administration is started",lowers significantly
same,Fasting blood glucose level,"[4]; HFD mice, D-allulose 0.2 mg/body weight g/day, from week 3 after administration is started",a reduction in fasting blood glucose level is observed
same,Area of brown adipocytes (BAT),[4]; [11],increase
same,Weight of brown adipocytes (BAT),[4]; [11],increase
same,Blood glucose level in the glucose loading test,"[4]; after 10 weeks, glucose intraperitoneally, after 90 and 120 minutes, vs control group",significantly decreases
same,Food intake,"[4]; mouse, in vivo",no significant change
same,Water intake,"[4]; mouse, in vivo",no significant change
same,UCP-1 mRNA expression,[5]; HFD-loaded mice,significantly increased
same,UCP-1 protein expression,[5]; HFD-loaded mice,significantly increased
same,PPARγ gene expression,[5]; gene panel,increased
same,Pgcl-α gene expression,[5]; gene panel,increased
same,Prdm16 gene expression,[5]; gene panel,increased
same,Tfam gene expression,[5]; gene panel,increased
same,UCP-1 gene expression,[5]; gene panel,increased
same,Prdm16 gene expression,"[6]; brown adipocytes, gene panel",increase
same,Tfam gene expression,"[6]; brown adipocytes, gene panel",increase
same,UCP-1 gene expression,"[6]; brown adipocytes, gene panel",increase
same,UCP-1 mRNA expression,[6]; [12],increased
same,UCP-1 protein expression,[6]; [12],increased
same,Expression of all the markers,"[7]; D-allulose administered group, markers UCP-1, Prdm16, Pgc-1α, tfam, cox8b, PPARγ",significantly increased
same,PPARγ expression,[7]; WAT-protocol,enhances the expression
same,Pgc-1α expression,[7]; WAT-protocol,enhances the expression
same,Prdm16 expression,[7]; WAT-protocol,enhances the expression
same,UCP-1 protein expression,[7]; WAT-protocol,slightly enhances
same,oil-red-O (fat staining),[7]; addition of D-allulose to the differentiation inducing protocol,promotes
same,PPARγ expression,[7]; both differentiation protocols,enhances expression of PPARγ
same,PPARγ expression,[7]; [13],increased
same,UCP-1 expression,[7]; [13],increased
